Here are results for seven substances from patent publication US10889812B2, “Short non-coding protein regulatory RNAs (sprRNAs) and methods of use” (University of Maryland, Baltimore, priority 2014, dated 2021).

For data set [1], the system named is p-ERM. Nature of the data set: IP with anti-p-ERM antibody followed by RT-PCR in transfected H1792 cells. Conditions: H1792 cells transfected with the oligonucleotide. In kind it is binding, human. The text has this: We next wanted to determine the site critical for piR-L-163's binding toP-ERM. We first analyzed the piR-L-163 sequence and identified a candidate motif “UUNNUUUNNUU” (SEQ ID NO:495) with potentially critical for the binding (FIG. 5a). We then generated 5 mutant forms of piR-L-163 named as M1-M5 (FIG. 5b and Table 3) to test their potential impact on the p-ERM binding. For this experiment, we used H1792 cells because these cells expressed extremely low level of endogenous piR-L-163 but considerable amount of p-ERM (FIG. 5c and FIG. 11a). H1792 cells were transfected with Scr (control), Ant-163, piR-L-163 (WT), or Mutant 1 (M1) to Mutant 5 (M5) RNA oligonucletides, respectively. An anti-p-ERM antibody was used for IP followed by RT-PCR using primers specific for Scr, Ant-163, piR-L-163, or M1-M5 (Table 6) to detect the corresponding oligonucleotides.
To amplify sncRNAs, we added an adaptor to the 3′ end, a process including adaptor ligation, RT and PCR (de Vanssay, A. et al. Paramutation in Drosophila linked to emergence of a piRNA-producing locus. Nature 490, 112-115 (2012); Li, Z. et al. Characterization of viral and human RNAs smaller than canonical MicroRNAs. J Virol. 83, 12751-12758 (2009)). For adaptor ligation, the adaptor /5′rapp/CTGTAGGCACCATCAAT/3′ddc/ (SEQ ID NO:499) with both 5′ and 3′ modification was used. Briefly, mixed 1 μl (10 pmol, ˜55 ng) of RNA 3′ adaptor and 4.4 μl (˜100 ng) of purified sncRNAs in a 1.5 ml EP tube; Incubated at 72° C. for 2 min, then placed on ice immediately and kept it on ice for at least 1 min; Added the following reagents (New England Biolabs) to the above tube: 0.8 μl 10×RNA ligase buffer, 1 μl RNase inhibitor, and 1 μl single strand RNA ligase; Mixed it well and incubated at 37° C. for 1 hr, then terminated the reaction at 65° C. for 15 min. For RT, SuperScript™ III First-Strand Synthesis System (Invitrogen) was used according to the manufacturer's instructions with gene specific primer (5′-[…]-3′) (SEQ ID NO:500). For PCR, a common reverse primer (5′-[…]-3′) (SEQ ID NO:501) and primers specific for individual sncRNAs (Table 6). Amplification conditions were denaturation at 95° C. for 30 s (5 min for the first cycle), annealing at 60° C. for 20 s and extension at 72° C. for 20 s (2 min for the last cycle) for 25 cycles.
For IP using anti-human Moesin or p-ERM antibodies, anti-Moesin (Clone Q480, Catalog No. 3150, Cell Signaling) or anti-p-ERM (Clone 41A3, Catalog No. 3149, Cell Signaling) antibodies were used and a rabbit IgG was used as a control. Briefly, Saturated protein G agarose beads (Sigma-Aldrich) with rabbit IgG, anti-Moesin or anti-p-ERM antibodies, respectively (1 μg antibody was used for 4 μl agarose beads) at 4° C. for 3 hrs, centrifuged at 2,200×g for 5 min, and discarded the upper aqueous phase; (2) Protein extracts prepared from cells using lysis buffer (20 mM Tris-cl, pH7.6, 150 mM NaCl, 20 mM KCl, 1.5 mM MgCl2, 0.5% NP-40, 0.5 mM PMSF) were pre-cleared using protein G agarose at 4° C. for 2 hrs, centrifuged at 2,200×g for 5 min, and transferred the upper aqueous phase to above tubes with agarose beads saturated with antibodies, respectively; Kept the tubes rotating overnight at 4° C., centrifuged at 2,200×g for 5 min, and washed the beads with lysis buffer twice; Extracted total RNAs from beads using Trizol Reagent (Life Technologies); Amplification of piR-L-163 or its mutants was performed according to the steps described in the “RT-PCR” section.

In data set [2] the test system is H1792 cells. As to the kind of experiment: Trans-well invasion assay. It is filed as cell-based, human. Conditions: H1792, vs control RNA oligonucleotides. The text has this:
We then tested the potential impact of piR-L-163 in cell migration and invasion, two of the properties involving ERM's biological functions (Fehon, R. G., Mclatchey, A. I. & Bretscher, A. Organizing the cell cortex: the role of ERM proteins. Nat Rev Mol Cell Biol. 11, 276-287 (2010); Hunter, K. W. Ezrin, a key component in tumor metastasis. Trends Mol. Med. 10, 201-204 (2004); Luo, Y. et al. Recognition of CD146 as an ERM-binding protein offers novel mechanisms for melanoma cell migration. Oncogene 31, 306-321 (2013); Clucas, J. & Valderrama, F. ERM proteins in cancer progression. J Cell Sci. 128, 1253 (2015)).
Briefly, 24 hrs after transfection, 6×10^4 cells were placed in the upper chamber of Matrigel Invasion Chambers (BD Bioscience) with growth factor-free Keratinocyte-SFM and the bottom chamber were exposed to Keratinocyte-SFM medium supplemented with L-Glutamine, prequalified human recombinant EGF 1-53 and BPE. Invading cells were evaluated after 12 hrs according to the manufacturer's instruction. The numbers of invading cells were adjusted 15% downwards for Ant-163 treated cells or 15% upwards for piR-L-163 treated cells to compensate the differences for the proliferation rates.

Data set [3] relates to MDM2. As to the kind of experiment: Western blot of MDM2 cleavage and phosphorylation in SCC cells. In kind it is cell-based, human. Conditions: SCC cells transfected, vs Scr RNA. The text has this:
Primary antibodies used were: anti-Moesin (1:1,000, Clone Q480, Catalog No. 3150, Cell Signaling), anti-p-ERM (Clone 41A3, Catalog No. 3149, Cell Signaling), anti-Moesin (Clone 38/Moesin, Catalog No. 610401, BD Transduction Laboratories), anti-p-Moesin (Thr558, Catalog No. 12895, Sanra Cruz), anti-β-actin (1:5,000, Catalog No. A228, Sigma-Aldrich), anti-EBP50 (1:100, Clone 6/EBP50, Catalog No. 61160, BD Transduction Laboratories), anti-F-actin (1:100, Clone NH3, Catalog No. MA1-80729, Thermor Fisher), anti-p-Wee 1 (Se53, 1:1000, Catalog No. sc-130223, Sanra Cruz), anti-Wee 1 (C-20, 1:1000, Catalog No. sc-325, Sanra Cruz), anti-p-Cdc2 (Tyr15, 1:1000, Catalog No. 9111, Cell Signaling), anti-p-Cdk (Thr14/Tyr15-R, 1:1000, Catalog No. sc-28435-R, Sanra Cruz), anti-Cdc2 p34 (H-297, 1:1000, Catalog No. sc-747, Sanra Cruz), anti-p-Cdc25C (Ser198, 1:1000, Catalog No. 9529, Cell Signaling), anti-CDK2 (78B2, 1:1000, Catalog No. 2546, Cell Signaling), anti-p-Histone H2AX (Ser139, 20E3, :1000, Catalog No. 9718, Cell Signaling), and anti-GFP (N-terminal, 1:4000, Catalog No. G1544, Sigma). Secondary antibodies used were: Goat anti-Mouse (1:2,500, Catalog No. 31160, Pierce), and Goat anti-Rabbit (1:2,500, Catalog No. 31460, Pierce). Cells were lysed in RIPA buffer (Sigma) on ice after washed in PBS twice, centrifuge at […] for 10 min at 4° C. Protein in supernatant was qualified using BCA™ protein assay kit (Thermo Scitific) and denatured in SDS loading buffer in boiling water, run 10% SDS-PAGE gel and transferred to nitrocellulose membrane (Thermo Scitific). […]
Next, we wanted to explore potential mechanism of piR-L-138-mediated apoptosis inhibition in CDDP treated lung SCC cells. We first analyzed cleaved PARP, a protein marker indicative of apoptosis, and found it was increased in the SCC cells pre-treated with Ant-138 compared with Scr pre-treated cells (FIG. 15d). As both of the SCC cell lines harbor p53 mutations, we analyzed mouse double minute 2 homolog (MDM2) which has been implicated in apoptosis including p53-independent pathway (Bohlman S, Manfredi J J. p53-independent effects of Mdm2. Subcell Biochem. 85,235-46 (2014); Bouska A, Eischen C M. Mdm2 affects genome stability independent of p53. Cancer Res. 69, 1697-701 (2009); Zhang, Z., Li, M., Wang, H., Agrawal, S., and Zhang, R. Antisense therapy targeting MDM2 oncogene in prostate cancer: Effects on proliferation, apoptosis, multiple gene expression, and chemotherapy. Proc. Natl. Acad. Sci. 100, 11636-11641 (2003); Zhang Z, Wang H, Li M, Agrawal S, Chen X, Zhang R. MDM2 Is a Negative Regulator of p21WAF1/CIP1, Independent of p53. […]
Background: In western blotting, separated proteins are transferred to a membrane and probed.

“Also recorded” adds a separate entry of the source. m = 2'-O-methyl; r = 2'-OH (RNA)

Consider “M1: mutant form of piR-L-163, RNA oligonucleotide, SEQ ID NO:519 (AUAUCAUGAUGACACGACGACACUCUGACC; (30)..(30) 2′-O-methylation)”, for which the “oligonucleotide detected by RT-PCR in anti-p-ERM IP products (binding to p-ERM)” value (“oligonucleotide detected … (binding to p-ERM)” below) in data set [1] is listed as “no RT-PCR band could be detected”. Besides, the invasion capability entry in data set [2] is “no impact”.
“M2: mutant form of piR-L-163, RNA oligonucleotide, SEQ ID NO:520 (AUAUCAUGAUGUUACGACGAUUCUCUGACC; sugars from the 5' end r29 m1, backbone not given here; further chemistry not fully specified)”: the “oligonucleotide detected … (binding to p-ERM)” value in data set [1] is given as “no RT-PCR band could be detected”.
Turning to “M3: mutant form of piR-L-163, RNA oligonucleotide, SEQ ID NO:521 (AUAUCAUGAUGUUACGCUGAUUCUCUGACC; sugars from the 5' end r29 m1, backbone not given here; further chemistry not fully specified)”, the “oligonucleotide detected … (binding to p-ERM)” value in data set [1] is recorded as “RT-PCR bands with expected sizes were detected; also recorded: substantially weaker”.
As for “M4: mutant form of piR-L-163, RNA oligonucleotide, SEQ ID NO:522 (AUAUCAUGAUGUUACUCUGAUUCUCUGACC; sugars from the 5' end r29 m1, backbone not given here; further chemistry not fully specified)”, the “oligonucleotide detected … (binding to p-ERM)” value in data set [1] is “RT-PCR bands with expected sizes were detected”.
Same read-out and setting: for “M5: mutant form of piR-L-163, RNA oligonucleotide, SEQ ID NO:523 (AUUUCAUGAUGUUACUUUGAUUCUCUGACC; sugars from the 5' end r29 m1, backbone not given here; further chemistry not fully specified)” the value was “RT-PCR bands with expected sizes were detected”; for “Scr: scrambled DNA or RNA oligonucleotides used as control (SEQ ID NO:506 DNA, SEQ ID NO:524 RNA) (DNA GATACCAGGGACATACGCTTGATCCTAGC; chain GAUACCAAGGACAUACGCUUAUGCAUGCUA; DNA: DNA, backbone and methylation of C not given here; chain: chemistry not given here) [reference compound]”, “no RT-PCR band could be detected”.
Regarding “piR-L-138: sprRNA, SEQ ID NO:268; piRNA-L down-regulated in NSCLC cells, up-regulated upon cisplatin (ACUUUAGCUCUAGAAUUACUCUGAGACCU; expressed or natural sequence; listed as Homo sapiens)”, in data set [3], the MDM2 cleavage result was “enhanced MDM2 cleavage” and the “Serine-166 phosphorylation in cleaved MDM2” value is reported as “reduced Serine-166 phosphorylation in cleaved MDM2”.
